From patent publication US10118903B2, “Aminotriazole-based KDM1A inhibitors as epigenetic modulators” (MUSC FOUNDATION FOR RESEARCH DEVELOPMENT, priority 2014, dated 2018) come the findings set out here.

One data set concerns the target T1, human recombinant LSD1 (Homo sapiens, UniProt O60341).
T1 construct: purchased Cayman Chemical Item #700120
Briefly: LSD1 inhibitor screening assay (Cayman Chemical kit, fluorometric). It counts as biochemical. To be noted: 10 μM compound; Chembridge analogues table. On the procedure:
LSD1 Inhibitor Screening Assay:
In short, 10 μM of compound was combined with the fluorometic substrate 10-acetyl-3,7-dihydroxyphenoxazine, horseradish peroxidase, human recombinant LSD1, and 100 μM dimethylated lysine at residue 4 [ARTK(diMe)[…]] (Seq. ID No: 1) for 30 mins at 37° C. Plates were read using an excitation wavelength of 535 nm and an emission wavelength of 590 nm with a SpectraMax M5 Microplate reader.
One may read the inhibition as the relative decrease from the control value, in per cent. With `Fc1ccc(COc2ccc(Cl)cc2CNc2nc[nH]n2)cc1` [Compound C2, N-(5-chloro-2-((4-fluorobenzyl)oxy)benzyl)-1H-1,2,4-triazol-3-amine], the inhibition at 10 µM came to 27.7 ± 9%.
For `Fc1ccccc1COc1ccc(Cl)cc1CNc1nc[nH]n1` [Compound C3, N-(5-chloro-2-((2-fluorobenzyl)oxy)benzyl)-1H-1,2,4-triazol-3-amine], the inhibition at 10 µM amounted to 30.6 ± 6.4%.
Turning to `Clc1ccc(CNc2nc[nH]n2)c(Cl)c1` [Compound C4, N-(2,4-dichlorobenzyl)-1H-1,2,4-triazol-3-amine], the inhibition at 10 µM worked out at 2.2 ± 6.9%.
The same measure, in the same setting: as for `COc1cccc(NCc2nn[nH]n2)c1OCc1ccc(F)cc1Cl` [Compound C5, N-((2H-tetrazol-5-yl)methyl)-2-((2-chloro-4-fluorobenzyl)oxy)-3-methoxyaniline], the figure is -3.1 ± 7.8%.
Turning to `Clc1ccccc1CNc1nc[nH]n1` [Compound C6, N-(2-chlorobenzyl)-1H-1,2,4-triazol-3-amine], the inhibition at 10 µM was 4.6 ± 6.9%.
Regarding `COc1cccc(CNc2nnc[nH]2)c1OCc1ccccc1Cl` [Compound C7, N-(2((2-chlorobenzyl)oxy)-3-methoxybenzyl)-4H-1,2,4-triazo1-3-amine], the inhibition at 10 µM stood at 18.1 ± 8.2%.
Same read-out and setting: as for `Cc1ccc(COc2ccc(Cl)cc2CNc2nn[nH]n2)cc1` [Compound C8, N-(5-chloro-2-((4-methylbenzyl)oxy)benzyl)-2H-tetrazol-5-amine], the figure is 6.9 ± 7.5%.
Take `Clc1cccc(Cl)c1CNc1nc[nH]n1` [Compound C9, N-(2,6-dichlorobenzyl)-1H-1,2,4-triazol-3-amine]: the inhibition at 10 µM was found to be 30.9 ± 7.7%.
Consider `CCOc1cc(Cl)cc(CNc2nc[nH]n2)c1` [Compound C10, N-(3-chloro-5-ethoxybenzyl)-1H-1,2,4-triazol-3-amine], for which the inhibition at 10 µM is -3 ± 12.7%.
As for `Clc1ccc(OCc2ccccc2)c(CNc2nn[nH]n2)c1` [Compound C11, N-(2-(benzyloxy)-5-chlorobenzyl)-2H-tetrazol-5-amine], the inhibition at 10 µM was 19.9 ± 8.4%.
As to `COc1cccc(CNc2nn[nH]n2)c1OCc1ccccc1Cl` [Compound C12, N-(2-((2-chlorobenzyl)oxy)-3-methoxybenzyl)-2H-tetrazol-5-amine], the inhibition at 10 µM turned out to be 22.1 ± 7.3%.
Regarding `COc1ccc(Cl)cc1CNc1nn[nH]n1` [Compound C13, N-(5-chloro-2-methoxybenzyl)-2H-tetrazol-5-amine], the inhibition at 10 µM worked out at 30.8 ± 5.7%.
With `CCOc1ccc(Cl)cc1CNc1nn[nH]n1` [Compound C14, N-(5-chloro-2-ethoxybenzyl)-2H-tetrazol-5-amine], the inhibition at 10 µM stood at 20.8 ± 5%.

Staying with this data set, now noted: 10 μM compound; synthetic analogues of C1, Table 2.
For `Cc1ccc(Oc2cccc(Cl)c2CNc2nnc(N)[nH]2)cc1` [Compound 5b, N^3-(2-chloro-6-(p-tolyloxy)benzyl)-4H-1,2,4-triazole-3,5-diamine], the inhibition at 10 µM turned out to be 59.3 ± 6.1%.
Still for that read-out and setting: as for `Cc1ccc(C(C)C)c(Oc2cccc(Cl)c2CNc2nnc(N)[nH]2)c1` [Compound 5c, N^3-(2-chloro-6-(2-isopropyl-5-methylphenoxy)benzyl)-4H-1,2,4-triazole-3,5-diamine], the figure is 56.3 ± 3.2%; as for `COc1cccc(Oc2cccc(Cl)c2CNc2nnc(N)[nH]2)c1` [Compound 5d, N^3-(2-chloro-6-(3-methoxyphenoxy)benzyl)-4H-1,2,4-triazole-3,5-diamine], 44.6 ± 5.1%; as for `Nc1nnc(NCc2ccccc2)[nH]1` [Compound 5e], 41 ± 17.4%.
On to `CC(C)(C)c1ccc(Oc2cccc(Cl)c2CNc2nnc(N)[nH]2)cc1` [Compound 5f, N^3-(2-(4-(tert-butyl)phenoxy)-6-chlorobenzyl)-4H-1,2,4-triazole-3,5-diamine], for which the inhibition at 10 µM came to 58.2 ± 8.8%.
For the molecule `Cc1cc(C)cc(Oc2cccc(Cl)c2CNc2nnc(N)[nH]2)c1` [Compound 5g, N^3-(2-chloro-6-(3,5-dimethylphenoxy)benzyl)-4H-1,2,4-triazole-3,5-diamine], the inhibition at 10 µM came out at 67.9 ± 6.5%.
`Nc1nnc(NCc2c(Cl)cccc2Oc2cc(C(F)(F)F)cc(C(F)(F)F)c2)[nH]1` [Compound 5h, N^3-(2-(3,5-bis(trifluoromethyl)phenoxy)-6-chlorobenzyl)-4H-1,2,4-triazole-3,5-diamine]: the inhibition at 10 µM came to 44.9 ± 4.6%.
With `Nc1nnc(NCc2c(Cl)cccc2Oc2ccc(Br)cc2C(F)(F)F)[nH]1` [Compound 5k, N^3-(2-(4-bromo-2-(trifluoromethyl)phenoxy)-6-chlorobenzyl)-4H-1,2,4-triazole-3,5-diamine], the inhibition at 10 µM is 67.8 ± 5.4%.
Consider `COc1cc(C)ccc1Oc1cccc(Cl)c1CNc1nnc(N)[nH]1` [Compound 5m, N^3-(2-chloro-6-(2-methoxy-4-methylphenoxy)benzyl)-4H-1,2,4-triazole-3,5-diamine], for which the inhibition at 10 µM came to 84.7 ± 3.2%.
Take `COc1cc(OC)cc(Oc2cccc(Cl)c2CNc2nnc(N)[nH]2)c1` [Compound 5n, N^3-(2-chloro-6-(3,5-dimethoxyphenoxy)benzyl)-4H-1,2,4-triazole-3,5-diamine]: the inhibition at 10 µM stood at 63.3 ± 8.6%.
For the molecule `Cc1ccccc1Oc1cccc(Cl)c1CNc1nnc(N)[nH]1` [Compound 5q], the inhibition at 10 µM came to 74.2 ± 5.2%.
As to `Nc1nnc(NCc2c(Cl)cccc2Oc2ccc3c(c2)OCO3)[nH]1` [Compound 5r, N^3-(2-(benzo[d][1,3]dioxol-5-yloxy)-6-chlorobenzyl)-4H-1,2,4-triazole-3,5-diamine], the inhibition at 10 µM was determined as 65.8 ± 6.4%.
In the case of `COc1ccc(Sc2cccc(Cl)c2CNc2nnc(N)[nH]2)cc1OC` [Compound 5t, N^3-(2-chloro-6-((3,4-dimethoxyphenyl)thio)benzyl)-4H-1,2,4-triazole-3,5-diamine], the inhibition at 10 µM was determined as 53.2 ± 1.7%.
Take `COc1cccc(Cl)c1CNc1nc(N)n[nH]1` [Compound H1]: the inhibition at 10 µM worked out at 73.1 ± 1.6%.
Regarding `Nc1n[nH]c(NCc2c(Cl)cccc2Oc2cccc3ccccc23)n1` [Compound M1], the inhibition at 10 µM was 95.3 ± 2.8%.
As for `Nc1n[nH]c(NCc2c(Cl)cccc2Oc2ccc(-c3ccccc3)cc2)n1` [Compound M3], the inhibition at 10 µM is 66.8 ± 4.4%.
Still for that read-out and setting: under `CCOc1cc(C)ccc1Oc1cccc(Cl)c1CNc1nc(N)n[nH]1` [Compound M4] stands 77.7 ± 2.9%.
On the same count and under the same terms, under `Nc1n[nH]c(NCc2c(Cl)cccc2Oc2cccc3cc[nH]c23)n1` [Compound M5] stands 67.6 ± 3.7%; under `Nc1n[nH]c(NCc2c(Cl)cccc2Oc2ccc(F)cc2)n1` [Compound M6], 76.4 ± 2.2%; under `COc1cc(Oc2cccc(Cl)c2CNc2nc(N)n[nH]2)cc(OC)c1OC` [Compound M7], 67.6 ± 6.2%.
On to `COc1cc(Oc2ccccc2CNc2nc(N)n[nH]2)cc(OC)c1OC` [Compound M8], for which the inhibition at 10 µM was determined as 56 ± 4.1%.
On to `Nc1n[nH]c(NCc2ccccc2Oc2cccc3ccccc23)n1` [Compound M9], for which the inhibition at 10 µM was found to be 78.1 ± 2.6%.
Consider `CCOc1cc(C)ccc1Oc1ccccc1CNc1nc(N)n[nH]1` [Compound M10], for which the inhibition at 10 µM was determined as 73.8 ± 4.4%.

System in a further data set: not listed separately
Kind of data set: Solubility noted in the LSD1 screen. It counts as physicochemical. The note with it: LSD1 screen at 10 μM.
Turning to `Nc1nnc(NCc2c(Cl)cccc2Oc2ccc(SC(F)(F)F)cc2)[nH]1` [Compound 5i, N^3-(2-chloro-6-(4-((trifluoromethyl)thio)phenoxy)benzyl)-4H-1,2,4-triazole-3,5-diamine], the “solubility (reason why % inhibition was not determined)” value is “Not Determined (Insoluble)”.
The same measure, in the same setting: under `Nc1nnc(NCc2c(Cl)cccc2Oc2ccc(Br)cc2Br)[nH]1` [Compound 5j] stands “Not Determined (Insolube)”.
